Like-named read-outs stand apart in the source and are kept apart here.
Columns and labels:
[1] = tested on: arrhythmia; experiment: Test with aconitine (arrhythmia appearance time); format: in vivo, rats
From the text: (§1) Antiarrhythmic activity in mice was observed by means of the Lawson test, using the method described by J. W. Lawson, J. Pharmacol. Exp. Therp., 160, 22-31 (1968) and Cr. Narcisse et al. Ann. Pharma. Fr., 37, 325-330 (1979), in rats by the test with aconitine of S. Witchitz et al. Coeur Med. Int., X(2), 281-286 (1971), and in dogs by the Harris test described in Circulation, 1, 1318 (1950). 3S-hydroxy-10,11-dihydroquinidine was used for each of these three tests.

[2] = Electrophysiological study in anesthetized dog (closed thorax, bipolar catheter-electrodes); format: in vivo
Protocol: The study was carried out on a dog anesthetized with pentobarbital, with a closed thorax, by means of bipolar catheter-electrodes introduced into the cardiac cavities by transcutaneous venous and arterial tracts.
In this manner and by means of a programmable stimulator, sinusal automaticity, intracardiac conduction times, and the effective and functional cardiac refractory periods can be measured.

[3] = set-up: species or system dogs; settings: dog, in vivo, iv
Protocol: The parameters were recorded by means of: catheters connected to pressure sensors (arterial pressure, left ventricular pressure and its first dp/dt derivative); electromagnetic flowmeter on the aorta (aortic flow); electrocardiograph; strain gauge placed on the left ventricular myocardium (myocardiac contraction force).

[4] = tested on: ventricular arrhythmia; experiment: Harris test; format: in vivo, dogs; settings: for % Protection / % Protection, Average: dogs, I.V.; for % Protection, Average: average of Exp. 1 and 2
From the text: as §1

[5] = tested on: anoxic ventricular fibrillation; experiment: Lawson test (antifibrillatory power); format: in vivo, mice
From the text: as §1
The Lawson test enables the study of the cardiac antifibrillatory power of the derivatives of the present invention. […] The efficacity dose 50 (ED50) indicated in Table 4 is the dose which protects half of the mice against anoxic ventricular fibrillation.

## CC[C@@]1(O)CN2CC[C@H]1C[C@@H]2[C@@H](O)c1ccnc2ccc(OC)cc12 [3S-hydroxy-10,11-dihydroquinidine, 3S-Hydroxy-10,11-dihydroquinidine]
[1]; compared with quinidine
  protective effect against arrhythmia (in words): greater than that of quinidine
[1]; compared with quinidine, quantitative level
  activity in the test with aconitine (in words): considerably more active than quinidine
[1]; rats, I.V., 10 mg/kg, control 98
  Appearance Time, ESV (ventricular extrasystoles): 208 min
[1]; rats, I.V., 10 mg/kg, control 112
  Appearance Time, TV (ventricular tachycardium): 253 min
[1]; rats, I.V., 10 mg/kg, control 228
  Appearance Time, FV (ventricular fibrillation): 504 min
[1]; rats, I.V., 10 mg/kg, vs control 98
  Appearance Time, ESV (ventricular extrasystoles), %: +112%
[1]; rats, I.V., 10 mg/kg, vs control 112
  Appearance Time, TV (ventricular tachycardium), %: +125%
[1]; rats, I.V., 10 mg/kg, vs control 228
  Appearance Time, FV (ventricular fibrillation), %: +121%
[2]; 1 mg/kg
  Cardiac Cycle, percentage of variation: +4.5%
  HV (HissPurkinje conduction), percentage of variation: +10.8%
  PREA (Effective auricular refractory period), percentage of variation: +8%
  PREV (Effective ventricular refractory period), percentage of variation: -1.5%
  PRFN (Functional nodal refractory period), percentage of variation: 0%
  QRS (Intraventricular conduction), percentage of variation: +14.4%
  QTc (Corrected repolarization time), percentage of variation: +2.8%
  SH (AuriculoHissian conduction), percentage of variation: +1.7%
[2]; 5 mg/kg
  Cardiac Cycle, percentage of variation: +5.1%
  HV (HissPurkinje conduction), percentage of variation: +20.9%
  PREA (Effective auricular refractory period), percentage of variation: +16%
  PREV (Effective ventricular refractory period), percentage of variation: +2.8%
  PRFN (Functional nodal refractory period), percentage of variation: +5.5%
  QRS (Intraventricular conduction), percentage of variation: +14.4%
  QTc (Corrected repolarization time), percentage of variation: +7%
  SH (AuriculoHissian conduction), percentage of variation: +3.8%
[2]; 10 mg/kg
  Cardiac Cycle, percentage of variation: +14. %
  HV (HissPurkinje conduction), percentage of variation: +32.8%
  PREA (Effective auricular refractory period), percentage of variation: +23.7%
  PREV (Effective ventricular refractory period), percentage of variation: +6.5%
  PRFN (Functional nodal refractory period), percentage of variation: +12.6%
  QRS (Intraventricular conduction), percentage of variation: +22%
  QTc (Corrected repolarization time), percentage of variation: +6%
  SH (AuriculoHissian conduction), percentage of variation: +15%
[2]; compared with quinidine
  cardiac frequency (in words): slows cardiac frequency like quinidine
  cardiac refractory periods, level of the auricles (in words): greater than those of quinidine
  cardiac refractory periods, ventricular and nodal stage (in words): effects equivalent to those of quinidine
  conduction in the His-Purkinje system (in words): effects greater than those of quinidine
[2]; dog, in vivo
  conduction between the auricles and the trunk of the His fasciculus (in words): slightly changes conduction
[3]
  cardiac flow (in words): no significant change before a cumulative dose of 20 mg/kg is reached
  cardiac frequency (in words): not significantly modified before a cumulative dose of 20 mg/kg is reached
  myocardiac contraction force (in words): no change
  systolic arterial pressure (in words): diminishes progressively with the dose, the effects only becoming considerable for a cumulative dose greater than 10 mg/kg
[3]; 0.5 mg/kg
  Cardiac Flow, variation in relation to initial value: -50 ± 50 mL/min
  Cardiac Frequency, variation in relation to initial value: -2 ± 6 beats/min.
  Force of Contractions of the Myocardium, variation in relation to initial value: -3 ± 3 g
  Systolic Arterial Pressure, variation in relation to initial value: -11 ± 4 mmHg
  Total Peripheral Resistance, variation in relation to initial value: -382 ± 180
[3]; 4 mg/kg
  Cardiac Flow, variation in relation to initial value: -90 ± 143 mL/min
  Cardiac Frequency, variation in relation to initial value: -5 ± 2 beats/min.
  Force of Contractions of the Myocardium, variation in relation to initial value: 0 ± 1 g
  Systolic Arterial Pressure, variation in relation to initial value: -20 ± 5 mmHg
  Total Peripheral Resistance, variation in relation to initial value: -457 ± 277
[3]; 5 mg/kg
  Cardiac Flow, variation in relation to initial value: -316 ± 412 mL/min
  Cardiac Frequency, variation in relation to initial value: -3 ± 16 beats/min.
  Force of Contractions of the Myocardium, variation in relation to initial value: 2 ± 1 g
  Systolic Arterial Pressure, variation in relation to initial value: -23 ± 7 mmHg
  Total Peripheral Resistance, variation in relation to initial value: -376 ± 227
[3]; 10 mg/kg
  Cardiac Flow, variation in relation to initial value: -775 ± 498 mL/min
  Cardiac Frequency, variation in relation to initial value: -15 ± 13 beats/min.
  Force of Contractions of the Myocardium, variation in relation to initial value: 8 ± 1 g
  Systolic Arterial Pressure, variation in relation to initial value: -36 ± 13 mmHg
  Total Peripheral Resistance, variation in relation to initial value: -91
[4]; 6 mg/kg, compared with quinidine
  decrease in ventricular arrhythmia (in words): greater with the compound of the present invention than with quinidine
[4]; 6 mg/kg, 1 h, Exp. 1
  % Protection: 65%
[4]; 6 mg/kg, 1 h, Exp. 2
  % Protection: 39%
[4]; 6 mg/kg, 1 h
  % Protection, Average: 52%
[4]; +10 mg/kg, 1 h, Exp. 1
  % Protection: 72%
[4]; +10 mg/kg, 1 h, Exp. 2
  % Protection: 42%
[4]; +10 mg/kg, 1 h
  % Protection, Average: 57%
[4]; +10 mg/kg, 2 h, Exp. 1
  % Protection: 97%
[4]; +10 mg/kg, 2 h, Exp. 2
  % Protection: 41%
[4]; +10 mg/kg, 2 h
  % Protection, Average: 69%
[4]; higher doses, compared with quinidine
  efficacity (in words): comparable for higher doses
[5]; Mus musculus, ip, mice, I.P., read-out: ED 50 (dose which protects half of the mice against anoxic ventricular fibrillation)
  ED50: 72.5 mg/kg
[5]; compared with quinidine
  antifibrillatory efficacity (in words): comparable to that of quinidine
